Data reported in patent publication US20260366053A1, “SYNTHESIS OF COTYLENIN AND ANALOGS THEREOF FOR THE DEVELOPMENT OF SELECTIVE MODULATORS OF 14-3-3 PROTEIN-PROTEIN INTERACTION” (priority 2022, published 2026).
“Also recorded” adds a separate entry of the source.

Columns and labels:
14-3-3 PPI = settings: cited from earlier work
[1] = test system: 14-3-3 proteins and their clients; settings: cited from earlier work
[2] = test system: human myeloid leukemia cells; settings: listed as cotylenol; cited from earlier work
[3] = test system: 14-3-3sigma and the C-terminal of TASK-3; settings: structural; listed as cotylenol; cited from earlier work
[4] = biological target: P450BM3 variant MERO1 L75A (Priestia megaterium, UniProt P14779, A185V/A291V/A83G/E253G/F206C/F88V/H237Q/L354V/L76A/P143S/R256S/S227R/T176I/V79A); settings: role: substrate; cofactor Na2NADP 0.2 eq.; lysate, 22 °C, 16 h, pH 8.0
P450BM3 variant MERO1 L75A, sequence (P14779 whole entry L76A/V79A/A83G/F88V/P143S/T176I/A185V/F206C/S227R/H237Q/E253G/R256S/A291V/L354V): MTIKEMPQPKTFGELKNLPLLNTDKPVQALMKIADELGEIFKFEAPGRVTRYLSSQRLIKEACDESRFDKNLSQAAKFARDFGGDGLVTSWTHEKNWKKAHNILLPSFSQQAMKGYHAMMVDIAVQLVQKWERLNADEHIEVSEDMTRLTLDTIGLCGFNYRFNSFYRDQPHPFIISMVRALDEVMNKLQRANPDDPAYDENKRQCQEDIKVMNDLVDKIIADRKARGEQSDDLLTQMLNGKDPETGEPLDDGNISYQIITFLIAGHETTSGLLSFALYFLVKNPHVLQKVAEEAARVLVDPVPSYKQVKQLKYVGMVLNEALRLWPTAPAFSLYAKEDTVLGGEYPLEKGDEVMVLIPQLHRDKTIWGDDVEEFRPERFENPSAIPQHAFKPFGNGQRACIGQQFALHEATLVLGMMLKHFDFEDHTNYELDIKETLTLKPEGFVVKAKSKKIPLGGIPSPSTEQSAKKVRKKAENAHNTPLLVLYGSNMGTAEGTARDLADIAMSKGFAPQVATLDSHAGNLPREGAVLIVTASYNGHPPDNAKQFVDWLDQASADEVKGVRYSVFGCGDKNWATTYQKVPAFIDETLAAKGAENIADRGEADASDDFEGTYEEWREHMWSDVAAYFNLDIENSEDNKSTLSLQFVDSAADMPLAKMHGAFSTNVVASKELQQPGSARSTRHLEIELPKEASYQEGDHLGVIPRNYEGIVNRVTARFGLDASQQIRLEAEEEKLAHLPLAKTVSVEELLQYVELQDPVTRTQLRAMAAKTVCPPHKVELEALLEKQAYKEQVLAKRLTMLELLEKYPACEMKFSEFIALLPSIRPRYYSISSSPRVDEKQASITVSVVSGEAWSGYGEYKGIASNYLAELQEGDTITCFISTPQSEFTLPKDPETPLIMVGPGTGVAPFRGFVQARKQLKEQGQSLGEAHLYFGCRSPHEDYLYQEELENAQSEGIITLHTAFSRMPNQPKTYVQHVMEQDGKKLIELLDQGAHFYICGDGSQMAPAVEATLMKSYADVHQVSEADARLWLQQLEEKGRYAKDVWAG

[5] = biological target: P450BM3 variant MERO1 FT (MERO1 L181F V184T) (Priestia megaterium, UniProt P14779, A185T/A291V/A83G/E253G/F206C/F88V/H237Q/L182F/L354V/P143S/R256S/S227R/T176I/V79A); settings: role: substrate; cofactor Na2NADP 0.2 eq.; lysate, 22 °C, 16 h, pH 8.0
P450BM3 variant MERO1 FT (MERO1 L181F V184T), sequence (P14779 whole entry V79A/A83G/F88V/P143S/T176I/L182F/A185T/F206C/S227R/H237Q/E253G/R256S/A291V/L354V): as the sequence (P14779 whole entry L76A/V79A/A83G/F88V/P143S/T176I/A185V/F206C/S227R/H237Q/E253G/R256S/A291V/L354V) above, with A76L, L182F, V185T counted along it

MoBsc9 = type: biochemical, Magnaporthe oryzae; settings: for conversion: role: substrate, cosubstrate α-ketoglutarate, 1 mg scale, clarified lysate, 15 °C, 10 h, pH 8.5
BscD = BscD (Pseudocercospora fijiensis, UniProt M2ZB93); settings: role: substrate; E. coli lysates
Description: The biocatalytic use of BscD and Bsc9 was investigated for the oxidation of 20.

Wild-type Bsc9 = Wild-type Bsc9 (Alternaria brassicicola, UniProt D7UTD1); type: biochemical; settings: for conversion: pH 8.5
Bsc9 “VR” = Bsc9 “VR” (Alternaria brassicicola, UniProt D7UTD1, DEL103-114/G116R/H115V); settings: role: substrate

C=CC(C)(C)OC[C@H]1O[C@H](O[C@@H]2C3=C([C@H](C)COC(C)=O)C[C@H](O)[C@]3(C)/C=C3/[C@@H](COC)CC[C@H]3[C@@H](C)[C@H]2O)[C@H](O)[C@@H](OC(C)=O)[C@@H]1O [Compound 2]
phytotoxicity (14-3-3 PPI): phytotoxins that target the 14-3-3 PPI
molecular glue activity [1]: capable of acting as molecular glues

COC[C@@]1(O)CC[C@@H]2/C1=C\[C@@]1(C)CCC(C(C)C)=C1[C@@H](O)[C@H](O)[C@@H]2C [Compound 3]
cytotoxicity [2]: cytotoxic toward human myeloid leukemia cells; also recorded: moderate cytotoxicity on human myeloid leukemia cells
ternary complex formation [3]: form a ternary complex with 14-3-3sigma and the C-terminal of TASK-3; also recorded: a crystal structure of cotylenol in complex with 14-3-3s and a synthetic C-terminal hexapeptide of TASK-3 has also been solved

COC[C@@]1(O)CC[C@@H]2/C1=C\[C@@]1(C)CCC(C(C)C)=C1C[C@H](O)[C@@H]2C [Compound 4]
regioselectivity of hydroxylation at C13 [4]: without any observable regioisomers

COCC1=C2C[C@@]3(C)CCC(C(C)C)=C3CC(=O)[C@H](C)[C@@H]2CC1 [Compound 8]
regioselectivity of oxidation [5]: primarily at C4

COCC1=C2C[C@@]3(C)CCC(C(C)C)=C3[C@@H](O)C(=O)[C@H](C)[C@@H]2CC1 [Compound 20]
conversion (MoBsc9): 100%
reaction (in words) (BscD): no reaction
conversion (in words) (Wild-type Bsc9): moderate conversion
conversion (Wild-type Bsc9): 43%
reaction (in words) (Bsc9 “VR”): no reaction

COC[C@@]1(O)CC[C@@H]2/C1=C\[C@@]1(C)CCC(C(C)C)=C1[C@@H](O)C(=O)[C@@H]2C [Compound 21]
improvement in assay yield of 21 (MoBsc9; role: product, relative to Bsc9): ca. two-fold

CC(C)C1=C2[C@@H](O)C(=O)[C@H](C)[C@@H]3CCC(=O)/C3=C/[C@@]2(C)CC1 [Compound 22]
conversion (in words) (Wild-type Bsc9): no further conversion

COCC1=C2C[C@@]3(C)CCC(C(C)C)=C3C[C@H](O)[C@H](C)[C@@H]2CC1 [Compound 23]
conversion (MoBsc9): 30%
selectivity (percent ratio of the desired product:total products) (Wild-type Bsc9): 43%
conversion (Wild-type Bsc9): 37%
